The text below walks through data of patent publication US12441742B2, “Naphthyridine compounds as inhibitors of KRAS” (Incyte Corporation, priority 2021, dated 2025).

Broadly, the IC50 is the point on the concentration scale where inhibition reaches its midpoint.

Experiment [1] concerns the target T1, KRAS G12V (Homo sapiens, UniProt P01116, G12V). The experiment is described as follows: KRAS_G12V pERK assay. It counts as cell-based. As to conditions: read-out: G12V_pERK (KRAS_G12V pERK assay IC50).
Experiment [2] addresses T2, KRAS G12D (Homo sapiens, UniProt P01116, G12D). The experiment is described as follows: KRAS_G12D cellular pERK HTRF assay. The conditions noted are these: KRAS G12D cells (A427, HPAF-II), 2 hours; for IC50: read-out: G12D_pERK (KRAS_G12D pERK assay IC50). Type of experiment: cell-based. Further details: CRL-1997; host or cells: A427 or HPAF-II. Here is the method:
MIA PaCa-2 (KRAS G12C; ATCC® CRL-1420), A427 (KRAS G12D; ATCC® HTB53), HPAF-II (KRAS G12D; ATCC® CRL-1997) and NCI-H838 (KRAS WT; ATCC® CRL-5844) cells are purchased from ATCC and maintained in RPMI 1640 media supplemented with 10% FBS (Gibco/Life Technologies). The cells are plated at 5000 cells per well (8 uL) into Greiner 384-well low volume, flat-bottom, tissue culture treated white plates and incubated overnight at 37° C., 5% CO2. The next morning, test compound stock solutions are diluted in media at 3x the final concentration, and 4 uL are added to the cells. The plate is mixed by gentle rotation for 30 seconds (250 rpm) at room temperature. The cells are incubated with the KRAS G12C and G12D compounds for 4 hours or 2 hours respectively at 37° C., 5% CO2.
4 uL of 4x lysis buffer with blocking reagent (1:25) (Cisbio) are added to each well and plates are rotated gently (300 rpm) for 30 minutes at room temperature. 4 uL per well of Cisbio anti Phospho-ERK 1/2 d2 is mixed with anti Phospho-ERK 1/2 Cryptate (1:1) are added to each well, mixed by rotation and incubated overnight in the dark at room temperature. Plates are read on the Pherastar plate reader at 665 nm and 620 nm wavelengths. IC50 determination is performed by fitting the curve of inhibitor percent inhibition versus the log of the inhibitor concentration using the GraphPad Prism 7 software.
(In TR-FRET formats the signal depends on donor and acceptor labels being close together.)

Experiment [3] concerns the target T1, KRAS G12V. The experiment is described as follows: KRAS_G12V GDP-GTP exchange assay (bodipy-GDP/GppNHp, SOS1). It counts as biochemical. The conditions noted are these: bodipy loaded KRAS G12V 2.5 nM, 3 hours incubation after GppNHp-SOS1; read-out: G12V_exchange (KRAS_G12V exchange assay IC50). On the procedure:
(§1) The inhibitor potency of the exemplified compounds was determined in a fluorescence based guanine nucleotide exchange assay, which measures the exchange of bodipy-GDP (fluorescently labeled GDP) for GppNHp (Non-hydrolyzable GTP analog) to generate the active state of KRAS in the presence of SOS1 (guanine nucleotide exchange factor). Inhibitors were serially diluted in DMSO and a volume of 0.1 μL was transferred to the wells of a black low volume 384-well plate. 5 μL/well volume of bodipy-loaded KRAS G12D diluted to 2.5 nM in assay buffer (25 mM Hepes pH 7.5, 50 mM NaCl, 10 mM MgCl2 and 0.01% Brij-35) was added to the plate and pre-incubated with inhibitor for 4 hours at ambient temperature. Appropriate controls (enzyme with no inhibitor or with a G12D inhibitor) were included on the plate. The exchange was initiated by the addition of a 5 μL/well volume containing 1 mM GppNHp and 300 nM SOS1 in assay buffer. The 10 μL/well reaction concentration of the bodipy-loaded KRAS G12D, GppNHp, and SOS1 were 2.5 nM, 500 uM, and 150 nM, respectively. The reaction plates were incubated at ambient temperature for 2 hours, a time estimated for complete GDP-GTP exchange in the absence of inhibitor. For the KRAS G12V mutant, similar guanine nucleotide exchange assays were used with 2.5 nM as final concentration for the bodipy loaded KRAS proteins and 3 hours incubation after adding GppNHp-SOS1 mixture. A cyclic peptide described to selectively bind G12D mutant (Sakamoto et al., BBRC 484.3 (2017), 605-611) or internal compounds with confirmed binding were used as positive controls in the assay plates. Fluorescence intensities were measured on a PheraStar plate reader instrument (BMG Labtech) with excitation at 485 nm and emission at 520 nm.
(§2) Either GraphPad prism or XLfit was used to analyze the data. The IC50 values were derived by fitting the data to a four parameter logistic equation producing a sigmoidal dose-response curve with a variable Hill coefficient. Prism equation: Y=Bottom+(Top−Bottom)/(1+10^((Log IC50−X)*Hill slope)); XLfit equation: Y=(A+((B−A)/(1+((X/C)^D)))) where X is the logarithm of inhibitor concentration and Y is the response.

Experiment [4] has as its target T2, KRAS G12D. Put plainly: KRAS_G12D GDP-GTP exchange assay (bodipy-GDP/GppNHp, SOS1). The conditions noted are these: bodipy-loaded KRAS G12D 2.5 nM, 4 hours pre-incubation, 2 hours exchange. Type of experiment: biochemical. On the procedure:
as §1, §2

The structures appear in SMILES notation.

T2 sequence (P01116 1-188 isoform P01116-2 G12D): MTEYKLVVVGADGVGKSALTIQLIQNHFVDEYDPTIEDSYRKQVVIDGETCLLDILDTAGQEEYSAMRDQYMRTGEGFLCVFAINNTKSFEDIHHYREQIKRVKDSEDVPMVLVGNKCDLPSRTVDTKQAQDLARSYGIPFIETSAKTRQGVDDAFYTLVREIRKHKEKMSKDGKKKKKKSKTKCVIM
T1 sequence (P01116 1-188 isoform P01116-2 G12V): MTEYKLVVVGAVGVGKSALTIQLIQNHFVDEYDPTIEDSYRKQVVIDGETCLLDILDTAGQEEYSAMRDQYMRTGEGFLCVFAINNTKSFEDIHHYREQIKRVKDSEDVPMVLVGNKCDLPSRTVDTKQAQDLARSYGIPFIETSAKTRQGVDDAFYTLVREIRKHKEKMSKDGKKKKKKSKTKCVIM

For the compound `Cc1cc2c(OCC34CCCN3CCC4)nc3c(F)c(-c4cc(O)cc5ccccc45)ncc3c2n1[C@@H]1[C@@H]2CN[C@H]1C2` (relative stereo) [Example 4, 4-(1-((endo)-2-azabicyclo[2.1.1]hexan-5-yl)-6-fluoro-2-methyl-4-((tetrahydro-1H-pyrrolizin-7a(5H)-yl)methoxy)-1H-pyrrolo[3,2-c][1,6]naphthyridin-7-yl)naphthalen-2-ol], the IC50 at KRAS G12V [1] is 1000 to 5000 nM; at KRAS G12D [2], 100 to 1000 nM; on KRAS G12V [3] it was ≤ 100 nM. The “G12D_exchange (KRAS_G12D exchange assay IC50)” value (from here on “G12D_exchange”) on KRAS G12D [4] is “†”.

Turning to `COC(=O)CCc1nc2c(N3CC(N(C)C)C3)nc3c(F)c(-c4cc(O)cc5ccccc45)ncc3c2n1[C@@H]1[C@@H]2CN[C@H]1C2` (relative stereo) [Example 11, methyl 3-(1-((endo)-2-azabicyclo[2.1.1]hexan-5-yl)-4-(3-(dimethylamino)azetidin-1-yl)-6-fluoro-7-(3-hydroxynaphthalen-1-yl)-1H-imidazo[4,5-c][1,6]naphthyridin-2-yl)propanoate], the IC50 on KRAS G12D [2] is 1000 to 5000 nM; at KRAS G12V [3], 100 to 1000 nM. The “G12D_exchange” value at KRAS G12D [4] is “†”.

Take `COC(=O)CCc1cc2c(O[C@@H](C)[C@@H]3CCCN3C)nc3c(F)c(-c4cc(O)cc5ccccc45)ncc3c2n1C1C2CNC1C2` (single isomer, unassigned) [Example 1a]: the IC50 is 1000 to 5000 nM on KRAS G12V [1] and ≤ 100 nM on KRAS G12V [3]. For the same compound, the “G12D_pERK (KRAS_G12D pERK assay IC50)” value on KRAS G12D [2] is on record as “†”. Besides, the “G12D_exchange” value on KRAS G12D [4] is given as “†”.

On to `COC(=O)CCc1cc2c(O[C@@H](C)[C@@H]3CCCN3C)nc3c(F)c(-c4cc(O)cc5ccccc45)ncc3c2n1C1C2CNC1C2` (single isomer, unassigned) [Example 1b], for which the IC50 on KRAS G12V [1] is 100 to 1000 nM; at KRAS G12V [3], ≤ 100 nM. In addition, the “G12D_exchange” value on KRAS G12D [4] is “†”.

Take `COC(=O)CCc1cc2c(OC[C@@]34CCCN3C[C@H](F)C4)nc3c(F)c(-c4cc(O)cc5ccccc45)ncc3c2n1C1C2CNC1C2` (single isomer, unassigned) [Example 2a]: the IC50 on KRAS G12D [2] fell in the range of 1000 to 5000 nM; on KRAS G12V [3] it was 100 to 1000 nM. For the same compound, the “G12D_exchange” value at KRAS G12D [4] is “†”.

On to `COC(=O)CCc1cc2c(OC[C@@]34CCCN3C[C@H](F)C4)nc3c(F)c(-c4cc(O)cc5ccccc45)ncc3c2n1C1C2CNC1C2` (single isomer, unassigned) [Example 2b], for which the values for the 50% inhibitory concentration (IC50) at KRAS G12V [1], on KRAS G12D [2] and on KRAS G12V [3] were 5000 to 10000 nM, 100 to 1000 nM and ≤ 100 nM, respectively. In addition, on KRAS G12D [4], the “G12D_exchange” value is “†”.

With `Cc1cc2c(O[C@@H](C)[C@@H]3CCCN3C)nc3c(F)c(-c4cc(O)cc5ccccc45)ncc3c2n1C1C2CNC1C2` (single isomer, unassigned) [Example 3a], the IC50 on KRAS G12V [1] was 100 to 1000 nM; at KRAS G12V [3], ≤ 100 nM. Besides, the “G12D_pERK (KRAS_G12D pERK assay IC50)” value at KRAS G12D [2] is “†”. For the same compound, the “G12D_exchange” value on KRAS G12D [4] is recorded as “†”.

As to `Cc1cc2c(O[C@@H](C)[C@@H]3CCCN3C)nc3c(F)c(-c4cc(O)cc5ccccc45)ncc3c2n1C1C2CNC1C2` (single isomer, unassigned) [Example 3b], the IC50 on KRAS G12V [1] fell in the range of 5000 to 10000 nM; at KRAS G12D [2] it was 100 to 1000 nM; on KRAS G12V [3] it was 100 to 1000 nM. For the same compound, the “G12D_exchange” value at KRAS G12D [4] is “†”.

For the compound `C[C@H](Oc1nc2c(F)c(N3CCCc4ccccc43)ncc2c2c1cc(CN1CCOC1=O)n2C1C2CNC1C2)[C@@H]1CCCN1C` (single isomer, unassigned) [Example 7a], the concentration for half-maximal inhibition (IC50) was in the range of 1000 to 5000 nM on KRAS G12D [2] and 100 to 1000 nM on KRAS G12V [3]. The “G12D_exchange” value on KRAS G12D [4] is “†”.

For `C[C@H](Oc1nc2c(F)c(-c3cc(O)cc4ccccc34)ncc2c2c1nc(CCC(=O)N(C)C)n2C1C2CNC1C2)[C@@H]1CCCN1C` (single isomer, unassigned) [Example 9a], the half-inhibitory concentration (IC50) at KRAS G12D [2] is 1000 to 5000 nM; at KRAS G12V [3], ≤ 100 nM. Besides, the “G12D_exchange” value at KRAS G12D [4] is listed as “†”.

With `CN(C)C(=O)CCc1nc2c(N3CC(N(C)C)C3)nc3cc(-c4cc(O)cc5ccccc45)c(CCC#N)nc3c2n1C1C2CNC1C2` (single isomer, unassigned) [Example 17b, 3-(1-((endo)-2-azabicyclo[2.1.1]hexan-5-yl)-8-(2-cyanoethyl)-4-(3-(dimethylamino)azetidin-1-yl)-7-(3-hydroxynaphthalen-1-yl)-1H-imidazo[4,5-c][1,5]naphthyridin-2-yl)-N,N-dimethylpropanamide], the 50% inhibitory concentration (IC50) was in the range of 5000 to 10000 nM at KRAS G12D [2] and 1000 to 5000 nM on KRAS G12V [3]. The “G12D_exchange” value on KRAS G12D [4] is on record as “†”.

On to `C[C@H](Oc1nc2c(F)c(-c3cccc4c3OCCC4)ncc2c2c1cc(C1CC[C@H]3COC(=O)N13)n2[C@H]1[C@H]2CN[C@@H]1C2)[C@@H]1CCCN1C` (single isomer, unassigned) [Example 26a], for which the IC50 at KRAS G12V [1] was 1000 to 5000 nM; at KRAS G12V [3], ≤ 100 nM. Moreover, the “G12D_pERK (KRAS_G12D pERK assay IC50)” value at KRAS G12D [2] is “†”. Moreover, the “G12D_exchange” value at KRAS G12D [4] was “†”.

`C[C@H](Oc1nc2c(F)c(-c3cccc4c3OCCC4)ncc2c2c1cc(C1CC[C@H]3COC(=O)N13)n2[C@H]1[C@H]2CN[C@@H]1C2)[C@@H]1CCCN1C` (single isomer, unassigned) [Example 26b]: the figures for the IC50 on KRAS G12D [2], on KRAS G12V [3] and at KRAS G12D [4] (read-out: G12D_exchange (KRAS_G12D exchange assay IC50)) were 1000 to 5000 nM, 100 to 1000 nM and 100 to 1000 nM, respectively.

As for `COC(=O)N1CCC[C@@H]1c1cc2c(O[C@@H](C)CN3CCCC3)nc3c(F)c(-c4cccc5scnc45)ncc3c2n1[C@H]1[C@H]2CN[C@@H]1C2` [Example 25, methyl (R)-2-(7-(benzo[d]thiazol-4-yl)-1-((1R,4R,5S)-2-azabicyclo[2.1.1]hexan-5-yl)-6-fluoro-4-(((S)-1-(pyrrolidin-1-yl)propan-2-yl)oxy)-1H-pyrrolo[3,2-c][1,6]naphthyridin-2-yl)pyrrolidine-1-carboxylate], the IC50 on KRAS G12V [1] was 1000 to 5000 nM; at KRAS G12V [3], 100 to 1000 nM. On KRAS G12D [2], the “G12D_pERK (KRAS_G12D pERK assay IC50)” value is listed as “†”. Moreover, on KRAS G12D [4], the “G12D_exchange” value is on record as “†”.

Turning to `C[C@H](Oc1nc2c(F)c(-c3cccc4c3OCCC4)ncc2c2c1cc(-c1cn(C)nc1C(=O)N(C)C)n2[C@H]1[C@H]2CN[C@@H]1C2)[C@@H]1CCCN1C` [Example 27, 4-(1-((1R,4R,5S)-2-azabicyclo[2.1.1]hexan-5-yl)-7-(chroman-8-yl)-6-fluoro-4-((S)-1-((S)-1-methylpyrrolidin-2-yl)ethoxy)-1H-pyrrolo[3,2-c][1,6]naphthyridin-2-yl)-N,N,1-trimethyl-1H-pyrazole-3-carboxamide], the IC50 at KRAS G12V [1] is 1000 to 5000 nM; on KRAS G12D [2], 1000 to 5000 nM; on KRAS G12V [3], ≤ 100 nM. Also, the “G12D_exchange” value on KRAS G12D [4] is “†”.
